Consider 1 compound from paper PMC4357444, “Accumulation of Squalene in a Microalga Chlamydomonas reinhardtii by Genetic Modification of Squalene Synthase and Squalene Epoxidase Genes” (PLoS ONE, 2015).

In this assay the target is T1, CrSQS (Chlamydomonas reinhardtii, UniProt A0A2K3DXC5).
T1 construct: gene CHLRE_03g175250v5; Met-1 to Asp-397, C-terminal 64 residues (transmembrane region) removed; C-terminal 6xHis (pET-21b), E. coli BL21(DE3), TALON purified, 46 kDa
In words: radiolabel TLC assay of squalene formation. Type of assay: biochemical. Particulars: 25 uM (1-14C) FPP, 2.5 mM NADPH, 5 mM MgCl2 or 2 mM MnCl2, pH 7.4, 30 °C; labelled compound; 2.5 mM NADPH (with glucose-6-phosphate dehydrogenase regeneration) against no NADPH.

Molecules are shown by their SMILES.

T1 sequence (A0A2K3DXC5 entry or part of it): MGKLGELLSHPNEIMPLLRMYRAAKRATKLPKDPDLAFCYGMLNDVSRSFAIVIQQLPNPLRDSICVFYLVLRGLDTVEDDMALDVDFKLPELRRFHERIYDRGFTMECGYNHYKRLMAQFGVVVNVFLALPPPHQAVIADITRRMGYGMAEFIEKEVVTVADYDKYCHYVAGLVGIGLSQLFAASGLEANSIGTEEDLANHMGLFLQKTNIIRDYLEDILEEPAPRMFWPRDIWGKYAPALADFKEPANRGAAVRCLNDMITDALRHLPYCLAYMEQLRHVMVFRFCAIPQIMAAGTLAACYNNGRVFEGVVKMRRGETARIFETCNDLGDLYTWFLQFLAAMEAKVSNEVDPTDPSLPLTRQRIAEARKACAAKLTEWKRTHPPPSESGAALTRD

With `NC(=O)C1=CN([C@@H]2O[C@H](COP(=O)(O)OP(=O)(O)OC[C@H]3O[C@@H](n4cnc5c(N)ncnc54)[C@H](OP(=O)(O)O)[C@@H]3O)[C@@H](O)[C@H]2O)C=CC1` [NADPH], the “radiolabel TLC assay of squalene formation” value was “When NADPH was removed, radiolabeled squalene was not detected in any sample”.
